The text below walks through data of patent US5981556A, “1,3-diazolino and 1,3-diazolidino heterocycles as useful nitric oxide synthase inhibitors” (G.D. Searle & Co., priority 1997, dated 1999).

The test system of assay [1] is endotoxin (LPS) induced rise in plasma nitrites. In words: In Vivo Assay: plasma nitrites after endotoxin (Low Dose LPS). As to conditions: plasma nitrites 5 hours post-treatment. Also on record: species or system Rats. The protocol: Rats were treated with an intraperitoneal injection of 10 mg/kg of endotoxin (LPS) with or without oral administration of the nitric oxide synthase inhibitors.

The target in another assay is hecNOS (Homo sapiens, UniProt P29474). In words: Citrulline Assay for Nitric Oxide Synthase, Human in vitro Enzyme Data, hecNOS. The assay is classed as biochemical.
The target in the next assay is hiNOS (Homo sapiens, UniProt P35228). In words: Citrulline Assay for Nitric Oxide Synthase, Human in vitro Enzyme Data, hiNOS. The format is biochemical.
The target of a further assay is hnaNOS (Homo sapiens, UniProt P29475). In words: Citrulline Assay for Nitric Oxide Synthase, Human in vitro Enzyme Data, hnaNOS. The format is biochemical.

Counter-ions that a name gives are not always drawn.

One may read the IC50 as the concentration at which inhibition is half-maximal. Lower therefore signals greater potency.

For `Cc1noc(=O)n1CCCC[C@H](N)C(=O)O` [Example 2, αS-amino-4,5-dihydro-3-methyl-5-oxo-1,2,4-oxadiazole-4-hexanoic acid, monohydrochloride], in assay [1] (i.v., 3 mg/kg/day), the “Low Dose LPS in vivo Effective Dose (i.v.), inh.” value is reported as 83%. Also, the entries for the “Low Dose LPS in vivo Effective Dose (p.o.), inh.” value in assay [1] (3 mg/kg/day) and in assay [1] (10 mg/kg/day) were 39% and 42%, respectively. The IC50 against hecNOS is 1140 µM; at hiNOS, 138 µM; against hnaNOS it was 159 µM.
